We go through one compound from ChEMBL document CHEMBL1146835, “Aspermytin A: a new neurotrophic polyketide isolated from a marine-derived fungus of the genus Aspergillus” (2004).

This test deals with PC-12. Briefly: Neurotrophic effect on rat pheochromocytoma (PC-12) cells was expressed as percent cells with neurites after 2 days treatment with 50 uM of compound. The format is functional.

Take `C[C@H]1CCC2[C@@H](C=C[C@@](C)(O)[C@]2(C)C(=O)CCO)C1` (stereo partly specified): the Cells was >50%.
